Results reported in patent publication US6376541B1, “Upregulation of endogenous prostaglandins to lower intraocular pressure” (Alcon Manufacturing, Ltd., priority 1998, dated 2002).
Like-named read-outs stand apart in the source and are kept apart here.

Assays:
[1] = test system: cultured trabecular-meshwork cells; details: cited from earlier work
[2] = test system: human trabecular meshwork cells; test: Induction of PGE2 synthesis in cultured human trabecular meshwork cells (14C-arachidonic acid, TLC); type: cell-based; details: 10 ng/ml each; for % of total CPM in PGE2 fraction (mean ± std dev): 17 hours then 14C-arachidonic acid for 4 hours
Description: Primary human trabecular meshwork cells were grown in culture according to the method of Weinreb, et al. from a donor. Cells (passage 5) were seeded into 12-well plates and grown until they just reached confluency, with culture medium replacement every 3-4 days. Triplicate wells of cells were then exposed to interleukin-1 beta (10 ng/ml final), TGF-beta 1 (10 ng/ml final) or both in 1 ml of Ham's F-10 Nutrient Mixture (Gibco-BRL), containing 2 mM L-glutamine and 0.4 mg/ml bovine serum albumin (Sigma Chemical Co.). Control cells received medium devoid of IL-1β and TGF-β1. Cells were then incubated in a 37° C., 5% CO2, humidified incubator for 17 hours. ^14C-arachidonic acid (300,000 dpm) was added to each well, and the cells were returned to the incubator for an additional 4 hours. A modified Bligh & Dyer lipid extraction [Can. J. Biochem. Physiol. 37,911 (1959)] was then performed on the cells and supernatants. An aliquot of the extracted samples and fatty acid standards were spotted on a moderate hardness silica gel thin-layer chromatography plate (Alltech K5, 20×20 cm, 250 μm thick). The plate was developed in prostaglandin TLC solvent (11:5:2:10 ethyl acetate: 2,2,4-trimethylpentane: acetic acid: distilled water), air-dried, and standard bands were visualized with vaporization of iodine crystals. Each lane on the plate was divided into segments based upon the position of the standards, and each segment was scraped off of the plate with a razor blade into a glass scintillation vial. Opti-fluor scintillation cocktail (Packard) was added to each vial, and the samples were counted on a beta scintillation counter. The amount of each fraction was calculated as a percentage of total counts per minute (CPM) from that sample.

[3] = test system: human corneal fibroblasts; test: Induction of prostaglandin synthesis in cultured human corneal fibroblasts (enzyme immunoassay of conditioned medium); type: cell-based; details: 10 ng/ml
Description: Primary human corneal fibroblasts were grown in culture from freshly denuded corneal stromal tissue from a donor. Cells (passage 4) were seeded into 12-well plates and grown to 80% confluency. Selected cells were then exposed to Interleukin-1 alpha (10 ng/ml final) in Ham's F-10 Nutrient mixture (HyClone Corporation) containing 10% fetal bovine serum by medium replacement in the wells. Control cells received medium devoid of this inflammatory cytokine. Cells were then incubated in a 37° C., 5% CO2, humidified incubator for 24 hours. Conditioned medium was then removed, centrifuged to remove any cellular debris (3 minutes at 2600 rpm and 4° C.), and analyzed for PGE2 and PGF2α, levels in the medium using specific enzyme immunoassay kits (Cayman Scientific). Cells in each well were counted, and prostaglandin levels normalized to the cell count for the respective wells.

fibroblasts = details: cited from earlier work
[4] = 24 hours, conditioned medium, normalized to cell count

In the case of `CCCCC/C=C\C/C=C\C/C=C\C/C=C\CCCC(=O)O` [arachidonic acid], the “effect on PGE2 synthesis” value [1] is given as “stimulate PGE2 synthesis”.

For `NCCc1c[nH]cn1` [histamine], the “effect on PGE2 synthesis” value [1] is given as “stimulate PGE2 synthesis”.

In the case of `CCCCC/C=C\C\C=C/C=C/C=C/[C@@H](SC[C@H](NC(=O)CC[C@H](N)C(=O)O)C(=O)NCC(=O)O)[C@@H](O)CCCC(=O)O` [leukotriene C4], the “effect on PGE2 synthesis” value [1] is given as “stimulate PGE2 synthesis”.

For `CNc1ccc2oc(C[C@H]3O[C@@]4(CC[C@H]3C)O[C@H]([C@H](C)C(=O)c3ccc[nH]3)[C@H](C)C[C@H]4C)nc2c1C(=O)O` [lonophore A23187], the “effect on PGE2 synthesis” value [1] is listed as “stimulate PGE2 synthesis”.

In the case of “IL-1β: interleukin-1 beta, prostaglandin upregulating agent (Genzyme)”, the “increase in PGE2 synthesis over non-treated control” value [2] is reported as 440% and the “% of total CPM in PGE2 fraction (mean ± std dev)” value [2] is reported as 9.34 ± 0.70%.

For “INTERLEUKIN-1α: inflammatory cytokine Interleukin-1 alpha”, the “PGE2 produced per 100,000 cells in 24 hours (mean ± std dev)” value [3, 4] was 48,736 ± 3597 PICOGRAMS, the “PGF2α produced per 100,000 cells in 24 hours (mean ± std dev)” value [3, 4] was 1704 ± 367 PICOGRAMS and the “elevation of the level of PGE2” value ([3]; versus unstimulated cells) was over 47 fold. For the same molecule, the “elevation of the level of PGF2α” value ([3]; versus unstimulated cells) was over 3 fold.

In the case of PDGF, the “stimulation of PGE2 synthesis” value (fibroblasts) is listed as 10-15 fold and the “stimulation of PGE2 synthesis” value (fibroblasts; in the presence of exogenous arachidonic acid) is listed as 28 fold.

For “TGF-β1: Transforming Growth Factor beta 1, prostaglandin upregulating agent”, the “increase in PGE2 synthesis over non-treated control” value [2] was 74% and the “% of total CPM in PGE2 fraction (mean ± std dev)” value [2] was 3.01 ± 0.38%.
